In experiment [1] the test system is Escherichia coli ATCC 25922. Briefly: Minimum inhibitory concentration (MIC), CLSI broth micro-dilution, E. coli. The experiment is classed as cell-based. To be noted: Escherichia coli, ATCC25922, 22 h. In outline:
(§1)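 Colonies grown 20 h at 35° C on Trypticase Soy agar (MRSA) or Luria agar (E. coli) were suspended in cation-adjusted Mueller Hinton broth with 0.002% Tween-80. Suspensions were added at OD600 0.0005 to 10-point twofold compound dilutions, then incubated 22 h at 35° C.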
In general terms: Broth dilution looks for growth in wells or tubes with falling amounts of substance.

In experiment [2] the test system is Methicillin Resistant Staphylococcus aureus strain USA 200. Briefly: Minimum inhibitory concentration (MIC), CLSI broth micro-dilution, S. aureus. The experiment is classed as cell-based. To be noted: Staphylococcus aureus, MRSA / USA200, MRSA USA 200, cation adjusted Mueller Hinton Broth + 0.002% Tween-80, 35° C., 22 hours. In outline:
as §1

Setting [3] is: Table 6, cation adjusted Mueller Hinton Broth + 0.002% Tween-80, 35° C.

Broadly, the MIC is the least concentration at which growth counts as inhibited. In the case of `Cc1nc(-c2ccc3c(c2)OCCC32CC2)nc(C)c1C(=O)N[C@@H](CCN)C(=O)N(C)[C@@H]1C(=O)N[C@@H](C)C(=O)N[C@H](C(=O)NCC#N)Cc2ccc(OCCN)c(c2)-c2cc1ccc2OCCN` (racemic) [Compound 285, rac-(8S,11S,14S)-3,18-bis(2-aminoethoxy)-N-(cyanomethyl)-11-methyl-14-[methyl-[rac-(2S)-4-amino-2-[(4,6-dimethyl-2-spiro[chromane-4,1′-cyclopropane]-7-yl-pyrimidine-5-carbonyl)amino]butanoyl]amino]-10,13-dioxo-9,12-diazatricyclo[13.3.1.12,6]icosa-1(18),2(20),3,5,15(19),16-hexaene-8-carboxamide], the MIC came out at 0.19 µM in experiment [1] (setting [3]) and 0.047 µM in experiment [2] (Table 6).

Regarding `Cc1nc(Cc2ccc(C(C)(C)C)cc2)nc(C)c1C(=O)N[C@@H](CCN)C(=O)N(C)[C@@H]1C(=O)N[C@@H](C)C(=O)N[C@H](C(=O)NCC#N)Cc2ccc(OCCN)c(c2)-c2cc1ccc2OCCN` (racemic) [Compound 287, rac-(8S,11S,14S)-3,18-bis(2-aminoethoxy)-N-(cyanomethyl)-11-methyl-14-[methyl-[rac-(2S)-4-amino-2-[[2-[(4-tert-butylphenyl)methyl]-4,6-dimethyl-pyrimidine-5-carbonyl]amino]butanoyl]amino]-10,13-dioxo-9,12-diazatricyclo[13.3.1.12,6]icosa-1(18),2(20),3,5,15(19),16-hexaene-8-carboxamide], the MIC came to 1 µM in experiment [1] (setting [3]) and 0.065 µM in experiment [2] (Table 6).

`CCCCCCOc1ccc(-c2cc(-c3ccc(C(=O)N[C@@H](CCN)C(=O)N(C)[C@@H]4C(=O)N[C@@H](C)C(=O)N[C@H](C(=O)NCC#N)Cc5ccc(OCCN)c(c5)-c5cc4ccc5OCCN)cc3)no2)cc1` (racemic) [Compound 380, rac-(8S,11S,14S)-3,18-bis(2-aminoethoxy)-N-(cyanomethyl)-11-methyl-14-[methyl-[rac-(2S)-4-amino-2-[[4-[5-(4-hexoxyphenyl)isoxazol-3-yl]benzoyl]amino]butanoyl]amino]-10,13-dioxo-9,12-diazatricyclo[13.3.1.12,6]icosa-1(18),2(20),3,5,15(19),16-hexaene-8-carboxamide]: the MIC came out at 0.48 µM in experiment [1] (setting [3]) and 0.045 µM in experiment [2] (Table 6).

Consider `Cc1nc(-c2ccc(N3CCC(F)(F)CC3)cc2)nc(C)c1C(=O)N[C@@H](CCN)C(=O)N(C)[C@@H]1C(=O)N[C@@H](C)C(=O)N[C@H](C(=O)NCC#N)Cc2ccc(OCCN)c(c2)-c2cc1ccc2OCCN` (racemic) [Compound 322, rac-(8S,11S,14S)-3,18-bis(2-aminoethoxy)-N-(cyanomethyl)-11-methyl-14-[methyl-[rac-(2S)-4-amino-2-[[2-[4-(4,4-difluoro-1-piperidyl)phenyl]-4,6-dimethyl-pyrimidine-5-carbonyl]amino]butanoyl]amino]-10,13-dioxo-9,12-diazatricyclo[13.3.1.12,6]icosa-1(18),2(20),3,5,15(19),16-hexaene-8-carboxamide], for which the MIC came out at 0.6 µM in experiment [1] (setting [3]) and 0.15 µM in experiment [2] (Table 6).

Consider `Cc1nc(-c2ccc(N3CCC3)cc2)nc(C)c1C(=O)N[C@@H](CCN)C(=O)N(C)[C@@H]1C(=O)N[C@@H](C)C(=O)N[C@H](C(=O)NCC#N)Cc2ccc(OCCN)c(c2)-c2cc1ccc2OCCN` (racemic) [Compound 323, rac-(8S,11S,14S)-3,18-bis(2-aminoethoxy)-N-(cyanomethyl)-11-methyl-14-[methyl-[rac-(2S)-4-amino-2-[[2-[4-(azetidin-1-yl)phenyl]-4,6-dimethyl-pyrimidine-5-carbonyl]amino]butanoyl]amino]-10,13-dioxo-9,12-diazatricyclo[13.3.1.12,6]icosa-1(18),2(20),3,5,15(19),16-hexaene-8-carboxamide], for which the values for the MIC in experiment [1] (setting [3]) and in experiment [2] (Table 6) were 1 µM and 0.38 µM, respectively.

For the compound `Cc1nc(-c2ccc(C(C)(C)C)cc2)nc(C)c1C(=O)N[C@@H](CCN)C(=O)N(C)[C@@H]1C(=O)N[C@@H](C)C(=O)N[C@H](C(=O)NCC#N)Cc2ccc(O)c(c2)-c2cc1ccc2OCCN` (racemic) [Compound 254, rac-(8S,11S,14S)-18-(2-aminoethoxy)-N-(cyanomethyl)-3-hydroxy-11-methyl-14-[methyl-[rac-(2S)-4-amino-2-[[2-(4-tert-butylphenyl)-4,6-dimethyl-pyrimidine-5-carbonyl]amino]butanoyl]amino]-10,13-dioxo-9,12-diazatricyclo[13.3.1.12,6]icosa-1(18),2(20),3,5,15(19),16-hexaene-8-carboxamide], the MIC in experiment [1] (setting [3]) was 0.24 µM; in experiment [2] (Table 6), 0.061 µM.

On to `Cc1nc(-c2ccc(C(C)(C)C)cc2)nc(N)c1C(=O)N[C@@H](CCN)C(=O)N(C)[C@@H]1C(=O)N[C@@H](C)C(=O)N[C@H](C(=O)NCC#N)Cc2ccc(OCCN)c(c2)-c2cc1ccc2OCCN` (racemic) [Compound 426, rac-(8S,11S,14S)-3,18-bis(2-aminoethoxy)-N-(cyanomethyl)-11-methyl-14-[methyl-[rac-(2S)-4-amino-2-[[4-amino-2-(4-tert-butylphenyl)-6-methyl-pyrimidine-5-carbonyl]amino]butanoyl]amino]-10,13-dioxo-9,12-diazatricyclo[13.3.1.12,6]icosa-1(18),2(20),3,5,15(19),16-hexaene-8-carboxamide], for which the MIC in experiment [1] (setting [3]) is 0.12 µM; in experiment [2] (Table 6) it was 0.023 µM.

In the case of `CCCCc1ccc(-c2ccn(-c3ccc(C(=O)N[C@@H](CCN)C(=O)N(C)[C@@H]4C(=O)N[C@@H](C)C(=O)N[C@H](C(=O)NCC#N)Cc5ccc(OCCN)c(c5)-c5cc4ccc5OCCN)c(C)c3)n2)cc1` (racemic) [Compound 201, rac-(8S,11S,14S)-3,18-bis(2-aminoethoxy)-N-(cyanomethyl)-11-methyl-14-[methyl-[rac-(2S)-4-amino-2-[[4-[3-(4-butylphenyl)pyrazol-1-yl]-2-methyl-benzoyl]amino]butanoyl]amino]-10,13-dioxo-9,12-diazatricyclo[13.3.1.12,6]icosa-1(18),2(20),3,5,15(19),16-hexaene-8-carboxamide], the results for the minimum inhibitory concentration (MIC) in experiment [1] (setting [3]) and in experiment [2] (Table 6) were 0.42 µM and 0.062 µM, respectively.

For the compound `Cc1nc(-c2ccc(C(C)(C)c3ccccc3)cc2)ncc1C(=O)N[C@@H](CCN)C(=O)N(C)[C@@H]1C(=O)N[C@@H](C)C(=O)N[C@H](C(=O)NCC#N)Cc2ccc(OCCN)c(c2)-c2cc1ccc2OCCN` (racemic) [Compound 236, rac-(8S,11S,14S)-3,18-bis(2-aminoethoxy)-N-(cyanomethyl)-11-methyl-14-[methyl-[rac-(2S)-4-amino-2-[[4-methyl-2-[4-(1-methyl-1-phenyl-ethyl)phenyl]pyrimidine-5-carbonyl]amino]butanoyl]amino]-10,13-dioxo-9,12-diazatricyclo[13.3.1.12,6]icosa-1(18),2(20),3,5,15(19),16-hexaene-8-carboxamide], the values for the MIC in experiment [1] (setting [3]) and in experiment [2] (Table 6) were 0.13 µM and 0.016 µM, respectively.

For the compound `Cc1nc(-c2ccc(C(C)(C)C)cc2)ncc1C(=O)N[C@@H](CN)C(=O)N(C)[C@@H]1C(=O)N[C@@H](C)C(=O)N[C@H](C(=O)NCC#N)Cc2ccc(OCCN)c(c2)-c2cc1ccc2OCCN` (racemic) [Compound 457, rac-(8S,11S,14S)-3,18-bis(2-aminoethoxy)-N-(cyanomethyl)-11-methyl-14-[methyl-[rac-(2S)-3-amino-2-[[2-(4-tert-butylphenyl)-4-methyl-pyrimidine-5-carbonyl]amino]propanoyl]amino]-10,13-dioxo-9,12-diazatricyclo[13.3.1.12,6]icosa-1(18),2(20),3,5,15(19),16-hexaene-8-carboxamide], the minimum inhibitory concentration (MIC) came out at 0.27 µM in experiment [1] (setting [3]) and 0.025 µM in experiment [2] (Table 6).

Take `Cc1cc(-c2ccc(S(F)(F)(F)(F)F)cc2)ccc1C(=O)N[C@@H](CCN)C(=O)N(C)[C@@H]1C(=O)N[C@@H](C)C(=O)N[C@H](C(=O)NCC#N)Cc2ccc(OCCN)c(c2)-c2cc1ccc2OCCN` (racemic) [Compound 202, rac-(8S,11S,14S)-3,18-bis(2-aminoethoxy)-N-(cyanomethyl)-11-methyl-14-[methyl-[rac-(2S)-4-amino-2-[[2-methyl-4-[4-(pentafluoro-lambda6-sulfanyl)phenyl]benzoyl]amino]butanoyl]amino]-10,13-dioxo-9,12-diazatricyclo[13.3.1.12,6]icosa-1(18),2(20),3,5,15(19),16-hexaene-8-carboxamide]: the MIC came out at 0.37 µM in experiment [1] (setting [3]) and 0.023 µM in experiment [2] (Table 6).

`CCCCCOc1ccc(-c2nc(C)c(C(=O)N[C@@H](CCN)C(=O)N(C)[C@@H]3C(=O)N[C@@H](C)C(=O)N[C@H](C(=O)O)Cc4ccc(OCCN)c(c4)-c4cc3ccc4OCCN)c(C)n2)cc1` (racemic) [Compound 638, rac-(8S,11S,14S)-3,18-bis(2-aminoethoxy)-11-methyl-14-[methyl-[rac-(2S)-4-amino-2-[[4,6-dimethyl-2-(4-pentoxyphenyl)pyrimidine-5-carbonyl]amino]butanoyl]amino]-10,13-dioxo-9,12-diazatricyclo [13.3.1.12,6]icosa-1(18),2(20),3,5,15(19), 16-hexaene-8-carboxylic acid]: the MIC in experiment [1] (Table 8, cation adjusted Mueller Hinton Broth + 0.002% Tween-80, 35° C.) is 0.22 µM; in experiment [2] (Table 8) it was 0.19 µM.

The values are drawn from US20260274892A1, “MACROCYCLIC BROAD SPECTRUM ANTIBIOTICS” (RQx Pharmaceuticals, Inc., priority 2017, published 2026).
